Measurements: US12565501B2, “Muscarinic acetylcholine M1 receptor antagonists” (Contineum Therapeutics, Inc., priority 2019, dated 2026)

Each compound was assayed against T1, human M1 receptor (Homo sapiens, UniProt P11229) (assay: In vitro functional assay of muscarinic acetylcholine receptor activity (aequorin calcium flux, reversal of EC80 acetylcholine response)). Details: CHO-K1 cells stably expressing human M1 receptor with aequorin; acetylcholine at EC80; calcium flux (luminescence); read-out: M1 IC50.
T1 sequence (P11229 1-460): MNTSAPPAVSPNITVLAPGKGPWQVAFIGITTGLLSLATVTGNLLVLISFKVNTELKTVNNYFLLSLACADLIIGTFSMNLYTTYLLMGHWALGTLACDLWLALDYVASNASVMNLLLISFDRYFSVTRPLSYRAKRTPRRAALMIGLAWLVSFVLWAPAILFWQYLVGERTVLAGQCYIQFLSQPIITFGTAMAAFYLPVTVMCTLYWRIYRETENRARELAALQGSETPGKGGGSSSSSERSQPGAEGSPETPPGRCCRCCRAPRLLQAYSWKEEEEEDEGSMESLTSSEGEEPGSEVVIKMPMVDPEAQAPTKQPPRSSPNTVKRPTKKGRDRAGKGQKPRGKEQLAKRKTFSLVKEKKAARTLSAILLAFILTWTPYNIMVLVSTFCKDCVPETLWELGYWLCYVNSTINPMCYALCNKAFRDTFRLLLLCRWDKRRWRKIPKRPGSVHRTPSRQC
Assay type: cell-based
Method in brief: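 Antagonist mode: compound (final 0.1% DMSO) and coelenterazine-loaded M1/aequorin CHO-K1 cells incubated 30 min in the dark before EC80 acetylcholine addition. Calcium flash integrated as 40 s luminescence AUC; IC50 derived from dose-response curves.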
Compound N#Cc1ccc(N2C3CCC2CN(C(=O)COCC2(c4ccccc4)CC2)C3)nc1 [Example 187, 6-(3-(2-((1-phenylcyclopropyl)methoxy)acetyl)-3,8-diazabicyclo[3.2.1]octan-8-yl)nicotinonitrile] has an IC50 of 100 to 1000 nM. With N#Cc1ccc(N2C3CCC2CN(C(=O)COCC2(c4ccc(F)cc4)CC2)C3)nc1 [Example 188, 6-(3-(2-((1-(4-fluorophenyl)cyclopropyl)methoxy)acetyl)-3,8-diazabicyclo[3.2.1]octan-8-yl)nicotinonitrile] the IC50 was 1000 to 10000 nM. N#Cc1ccc(N2C3CCC2CN(C(=O)COCC2(c4ccncc4)CC2)C3)nc1 [Example 189, 6-(3-(2-((1-(pyridin-4-yl)cyclopropyl)methoxy)acetyl)-3,8-diazabicyclo[3.2.1]octan-8-yl)nicotinonitrile] was tested, and the IC50 was 1000 to 10000 nM. With N#Cc1ccc(N2C3CCC2CN(C(=O)COC2(c4ccc(F)cc4)CC2)C3)nc1 [Example 205, 6-(3-(2-(1-(4-fluorophenyl)cyclopropoxy)acetyl)-3,8-diazabicyclo[3.2.1]octan-8-yl)nicotinonitrile] the IC50 was 100 to 1000 nM. In the case of N#Cc1ccc(N2C3CCC2CN(C(=O)COC2(c4cccc(F)c4)CC2)C3)nc1 [Example 206, 6-(3-(2-(1-(3-fluorophenyl)cyclopropoxy)acetyl)-3,8-diazabicyclo[3.2.1]octan-8-yl)nicotinonitrile], the IC50 is reported as 100 to 1000 nM. N#Cc1ccc(N2C3CCC2CN(C(=O)COC2(c4ccccc4F)CC2)C3)nc1 [Example 207, 6-(3-(2-(1-(2-fluorophenyl)cyclopropoxy)acetyl)-3,8-diazabicyclo[3.2.1]octan-8-yl)nicotinonitrile] was tested, and the IC50 was 10 to 100 nM. Work on N#Cc1ccc(N2C3CCC2CN(C(=O)COC2(c4ccc(Br)cc4)CC2)C3)nc1 [Example 208, 6-(3-(2-(1-(4-bromophenyl)cyclopropoxy)acetyl)-3,8-diazabicyclo[3.2.1]octan-8-yl)nicotinonitrile] yielded an IC50 of 100 to 1000 nM. In the case of N#Cc1ccc(N2C3CCC2CN(C(=O)COC2(c4cccc(Br)c4)CC2)C3)nc1 [Example 209, 6-(3-(2-(1-(3-bromophenyl)cyclopropoxy)acetyl)-3,8-diazabicyclo[3.2.1]octan-8-yl)nicotinonitrile], the IC50 is reported as 100 to 1000 nM. In the case of N#Cc1ccc(N2C3CCC2CN(C(=O)COC2(c4cccc(F)c4F)CC2)C3)nc1 [Example 211, 6-(3-(2-(1-(2,3-difluorophenyl)cyclopropoxy)acetyl)-3,8-diazabicyclo[3.2.1]octan-8-yl)nicotinonitrile], the IC50 is reported as 10 to 100 nM. For N#Cc1ccc(N2C3CCC2CN(C(=O)COC2(c4cc(F)ccc4F)CC2)C3)nc1 [Example 213, 6-(3-(2-(1-(2,5-difluorophenyl)cyclopropoxy)acetyl)-3,8-diazabicyclo[3.2.1]octan-8-yl)nicotinonitrile], the IC50 was 10 to 100 nM. Work on N#Cc1ccc(N2C3CCC2CN(C(=O)COC2(c4ccc(Cl)c(Cl)c4)CC2)C3)nc1 [Example 214, 6-(3-(2-(1-(3,4-dichlorophenyl)cyclopropoxy)acetyl)-3,8-diazabicyclo[3.2.1]octan-8-yl)nicotinonitrile] yielded an IC50 of 10 to 100 nM. Work on N#Cc1ccc(N2C3CCC2CN(C(=O)COC2(c4ccc(F)c(Br)c4)CC2)C3)nc1 [Example 215, 6-(3-(2-(1-(3-bromo-4-fluorophenyl)cyclopropoxy)acetyl)-3,8-diazabicyclo[3.2.1]octan-8-yl)nicotinonitrile] yielded an IC50 of 10 to 100 nM. In the case of N#Cc1ccc(N2C3CCC2CN(C(=O)COC2(c4cc(F)cc(Br)c4)CC2)C3)nc1 [Example 217, 6-(3-(2-(1-(3-bromo-5-fluorophenyl)cyclopropoxy)acetyl)-3,8-diazabicyclo[3.2.1]octan-8-yl)nicotinonitrile], the IC50 is reported as 10 to 100 nM. For N#Cc1ccc(N2C3CCC2CN(C(=O)COC2(c4cccc(Br)c4F)CC2)C3)nc1 [Example 219, 6-(3-(2-(1-(3-bromo-2-fluorophenyl)cyclopropoxy)acetyl)-3,8-diazabicyclo[3.2.1]octan-8-yl)nicotinonitrile], the IC50 was 10 to 100 nM.
